One data set has as its system Caco-2. Briefly: Efflux ratio of permeability from […] in human Caco2 cells. It is filed as ADME, cell-based. A general note: Caco-2 cells form a polarised layer with tight junctions and transporters.
In data set [1] the test system is Liver microsomes. Description: Intrinsic clearance in human liver microsomes. It is filed as ADME, Microsome.
The next data set concerns the target T1, Neuromedin-K receptor (Homo sapiens, UniProt P29371).
T1 sequence (P29371 whole entry): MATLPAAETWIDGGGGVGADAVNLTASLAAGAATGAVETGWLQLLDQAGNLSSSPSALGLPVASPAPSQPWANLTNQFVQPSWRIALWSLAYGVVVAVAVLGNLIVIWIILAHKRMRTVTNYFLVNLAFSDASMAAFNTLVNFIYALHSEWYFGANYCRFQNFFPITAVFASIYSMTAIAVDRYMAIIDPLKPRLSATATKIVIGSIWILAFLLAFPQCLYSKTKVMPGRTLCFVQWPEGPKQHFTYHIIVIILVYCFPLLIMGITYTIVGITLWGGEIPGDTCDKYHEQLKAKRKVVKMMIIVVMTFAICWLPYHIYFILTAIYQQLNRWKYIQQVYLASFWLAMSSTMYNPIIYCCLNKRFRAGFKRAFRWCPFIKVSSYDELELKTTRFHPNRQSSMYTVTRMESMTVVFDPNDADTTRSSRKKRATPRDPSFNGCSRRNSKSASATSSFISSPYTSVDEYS
Briefly: Displacement of [3H]Lu AE93103 from human NK3 receptor expressed in BHK cells. It counts as cell-based. Background: Displacement assays read how much labelled ligand stays bound in the presence of the test substance.

The next data set concerns the target Substance-P receptor (Homo sapiens, UniProt P25103). Briefly: Displacement of [125I]SP from human cloned NK1 receptor.
Data set [2] in a line: Apparent permeability of the compound in human Caco2 cells. It counts as ADME, cell-based. Particulars: caco-2.
The target in the next data set is T2, Substance-K receptor (Homo sapiens, UniProt P21452).
T2 sequence (P21452 whole entry): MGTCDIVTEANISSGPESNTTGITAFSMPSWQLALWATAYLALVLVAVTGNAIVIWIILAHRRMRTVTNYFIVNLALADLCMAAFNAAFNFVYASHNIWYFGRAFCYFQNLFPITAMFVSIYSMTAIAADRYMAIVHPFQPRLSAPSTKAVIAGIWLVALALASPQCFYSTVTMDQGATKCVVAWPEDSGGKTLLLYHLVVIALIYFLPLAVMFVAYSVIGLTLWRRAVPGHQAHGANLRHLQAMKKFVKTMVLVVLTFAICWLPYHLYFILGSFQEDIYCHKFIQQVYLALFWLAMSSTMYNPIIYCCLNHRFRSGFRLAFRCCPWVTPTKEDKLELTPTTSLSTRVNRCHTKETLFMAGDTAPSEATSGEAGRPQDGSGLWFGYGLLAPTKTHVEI
Briefly: Displacement of [125I]NKA from human cloned NK2 receptor.

A short description of data set [3]: Ratio of drug level in brain to plasma in sc dosed gerbils after 90 mins. It is filed as ADME, organism-based. Conditions: gerbillinae, read-out: BPR.
Data set [4] concerns Liver microsomes. Briefly: Intrinsic clearance in rat liver microsomes. It is filed as ADME, Microsome. Background: Microsomes from liver hold many membrane-bound enzymes, among them those of drug oxidation.
The nature of data set [5]: Clearance in rat. It counts as ADME, organism-based. Conditions: in vivo.
A short description of data set [6]: Oral bioavailability in rat. It counts as ADME, organism-based. Conditions: in vivo.
The test system of the next data set is Gerbillinae. Briefly: Reversal of senktide-induced explorative behavior in sc dosed gerbils compound pretreated 60 mins before senktide induction by […] assay. It is filed as functional.

Chain of Substance-P receptor (P25103 whole entry): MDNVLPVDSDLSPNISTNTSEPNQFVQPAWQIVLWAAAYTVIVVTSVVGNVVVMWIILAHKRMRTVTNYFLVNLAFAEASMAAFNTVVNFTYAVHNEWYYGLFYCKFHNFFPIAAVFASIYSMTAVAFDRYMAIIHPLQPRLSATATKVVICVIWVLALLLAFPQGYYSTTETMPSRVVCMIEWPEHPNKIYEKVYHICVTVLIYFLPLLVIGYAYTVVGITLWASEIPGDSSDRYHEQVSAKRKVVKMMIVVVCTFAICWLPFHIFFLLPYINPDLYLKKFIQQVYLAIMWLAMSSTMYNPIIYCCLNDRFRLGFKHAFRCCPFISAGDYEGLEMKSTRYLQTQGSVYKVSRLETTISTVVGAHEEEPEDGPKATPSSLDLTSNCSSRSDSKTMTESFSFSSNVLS

With `CC(=O)NC1(c2ccccc2)CCN(C[C@@H]2C[C@@]2(C(=O)N(C)Cc2ccccc2)c2ccc(Cl)c(Cl)c2)CC1`, the Ratio with Caco-2 amounted to 2.6. Moreover, the CL in the data set with Liver microsomes [1] was 3.5 L/min. In addition, the inhibitory constant (Ki) (in general, the dissociation constant of the complex between target and ligand, obtained from inhibition or displacement) is 5.9 nM at Neuromedin-K receptor, 130 nM at Substance-P receptor and 88 nM at Substance-K receptor. For the same compound, the apparent permeability (Papp) – broadly, a coefficient for how fast a substance crosses the barrier – in data set [2] was found to be 5.6 ×10⁻⁶ cm/s.

As for `CN(Cc1ccccc1)C(=O)[C@@]1(c2ccc(Cl)c(Cl)c2)C[C@H]1CN1CCC(NS(C)(=O)=O)(c2ccccc2)CC1`, the Ratio in the data set on Caco-2 is recorded as 120. In the data set on Liver microsomes [1], the CL stood at 15 L/min. The compound also had a Ki at Neuromedin-K receptor of 7.8 nM. For the same compound, the Papp in data set [2] is 0.1 ×10⁻⁶ cm/s.

In the case of `CN(Cc1ccc(F)cc1)C(=O)[C@@]1(c2ccc(Cl)c(Cl)c2)C[C@H]1CN1CCN(C(=O)CN2CCOCC2)CC1`, the Ratio in the data set with Caco-2 was found to be 1.5. This compound showed a CL in the data set with Liver microsomes [1] of 16 L/min. Further, the affinity on Neuromedin-K receptor, expressed as Ki, was 3.3 nM. In addition, the Papp in data set [2] is 35 ×10⁻⁶ cm/s.

Consider `CN(Cc1ccc(F)cc1)C(=O)[C@@]1(c2ccc(Cl)c(Cl)c2)C[C@H]1CN1CCN(CC(=O)N2CCCC2)CC1`, for which the Ratio in the data set on Caco-2 worked out at 1.3. The CL in the data set on Liver microsomes [1] is given as 12 L/min. At Neuromedin-K receptor, the Ki was found to be 1.8 nM. The Papp in data set [2] is 27 ×10⁻⁶ cm/s.

As for `CN(C)C(=O)CCN1CCN(C[C@@H]2C[C@@]2(C(=O)N(C)Cc2ccc(F)cc2)c2ccc(Cl)c(Cl)c2)CC1`, the Ratio with Caco-2 was found to be 1.1. The compound further returned a CL with Liver microsomes [1] of 8.5 L/min. On Neuromedin-K receptor, the Ki worked out at 17 nM. For the same compound, in data set [2], the Papp is 28 ×10⁻⁶ cm/s.

Turning to `CN(Cc1ccc(F)cc1)C(=O)[C@@]1(c2ccc(Cl)c(Cl)c2)C[C@H]1CN1CCN(C(=O)CN2CCCCC2)CC1`, the Ratio with Caco-2 is listed as 4.2. For the same compound, in the data set on Liver microsomes [1], the CL turned out to be 10 L/min. At Neuromedin-K receptor, the Ki was found to be 7.3 nM. In data set [2], the Papp is 2.9 ×10⁻⁶ cm/s.

In the case of `CN(Cc1ccc(F)cc1)C(=O)[C@@]1(c2ccc(Cl)c(Cl)c2)C[C@H]1CN1CCN(C(=O)CN2CCCC2)CC1`, the Ratio in the data set with Caco-2 stood at 3.5. The same compound returned a CL in the data set with Liver microsomes [1] of 5.6 L/min. On Neuromedin-K receptor, the Ki was 12 nM. Moreover, the apparent permeability coefficient (Papp) in data set [2] came to 5.7 ×10⁻⁶ cm/s.

With `CN(Cc1ccc(F)cc1)C(=O)[C@@]1(c2ccc(Cl)c(Cl)c2)C[C@H]1CN1CCN(S(=O)(=O)N(C)C)CC1`, in the data set with Caco-2, the Ratio amounted to 1.5. In [3], the Kp at 1.5 h was 1.9. For the same compound, the CL with Liver microsomes [1] was greater than 20 L/min; in the data set with Liver microsomes [4], 210 mL/min. The Ki at Neuromedin-K receptor came out at 7.6 nM; at Substance-P receptor, 340 nM; at Substance-K receptor, 75 nM. Besides, the clearance (as a rule, a measure of how efficiently the substance is removed, as volume per time) in [5] was 108 mL/min/kg. In data set [6], the bioavailability (usually dose-corrected exposure relative to a reference, in per cent) was less than 5%. The ED50 (as a rule, the dose that gives a 50% effect, or the effect in half of the subjects) in the data set on Gerbillinae came out at 14.2 mg/kg. Besides, the Papp in data set [2] stood at 25 ×10⁻⁶ cm/s.

On to `CCCNC[C@@H]1C[C@@]1(C(=O)N(C)Cc1ccc(F)cc1)c1ccc(Cl)c(Cl)c1`, for which the Ratio in the data set on Caco-2 amounted to 2.7. This compound also displayed a CL in the data set on Liver microsomes [1] of 0.9 L/min. Moreover, the Ki on Neuromedin-K receptor amounted to 150 nM. Besides, the Papp in data set [2] came to 5.4 ×10⁻⁶ cm/s.

As to `CC(C)NC[C@@H]1C[C@@]1(C(=O)N(C)Cc1ccc(F)cc1)c1ccc(Cl)c(Cl)c1`, in the data set on Caco-2, the Ratio was 1.5. In the data set on Liver microsomes [1], this compound showed a CL of 0.9 L/min. For the same compound, the Ki at Neuromedin-K receptor was 140 nM. Besides, the Papp in data set [2] was determined as 11 ×10⁻⁶ cm/s.

The values are drawn from ChEMBL document CHEMBL1681655, “Identification of a new series of non-peptidic NK3 receptor antagonists” (Bioorg Med Chem Lett, 2011).
